IC50 data for nine molecules are collected here from BindingDB's records for doi:10.1021/bi035098j (Merck Research Laboratories, 2003).

Usually IC50 stands for the midpoint of a concentration-inhibition curve. A low value points to higher potency.

Assay [1] deals with T1, Tyrosine-protein phosphatase non-receptor type 2 (Homo sapiens, UniProt P17706).
T1 sequence (P17706 whole entry): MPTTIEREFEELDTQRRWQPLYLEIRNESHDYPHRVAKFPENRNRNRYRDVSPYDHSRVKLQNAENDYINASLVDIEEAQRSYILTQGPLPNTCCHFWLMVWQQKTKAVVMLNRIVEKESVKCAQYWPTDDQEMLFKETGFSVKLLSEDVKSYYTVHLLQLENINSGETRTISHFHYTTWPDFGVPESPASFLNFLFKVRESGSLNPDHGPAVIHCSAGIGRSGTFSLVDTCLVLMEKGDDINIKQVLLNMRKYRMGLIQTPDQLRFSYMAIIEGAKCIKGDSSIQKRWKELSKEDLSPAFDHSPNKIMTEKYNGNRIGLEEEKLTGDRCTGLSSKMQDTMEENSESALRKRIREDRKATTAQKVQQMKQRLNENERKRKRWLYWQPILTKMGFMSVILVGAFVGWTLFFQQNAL
Put plainly: PTP1B and TCPTP Inhibition Assay. The settings on record: pH 6.3; 22 °C.

Assay [2] addresses T2, Tyrosine-protein phosphatase non-receptor type 1 [1-298] (Homo sapiens, UniProt P18031).
T2 construct: 1-298
T2 sequence (P18031 whole entry): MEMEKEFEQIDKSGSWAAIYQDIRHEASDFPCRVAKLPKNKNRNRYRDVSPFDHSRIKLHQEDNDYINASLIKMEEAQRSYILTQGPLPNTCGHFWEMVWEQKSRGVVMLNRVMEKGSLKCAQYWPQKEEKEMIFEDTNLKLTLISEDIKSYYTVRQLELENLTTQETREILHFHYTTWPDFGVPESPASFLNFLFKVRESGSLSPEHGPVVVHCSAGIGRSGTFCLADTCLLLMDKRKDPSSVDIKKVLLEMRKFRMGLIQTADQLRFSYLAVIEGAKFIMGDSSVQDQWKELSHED
Nature of the assay: PTP1B and TCPTP Inhibition Assay. The settings on record: pH 6.3; 22 °C.

SMILES strings stand for the structures.

On to `O=P(O)(O)C(F)(F)c1ccc(CC(Cc2ccc(C(F)(F)P(=O)(O)O)cc2)(c2ccccc2)n2nnc3ccccc32)cc1`, for which it took 0.011 µM to reach half-maximal inhibition in assay [1] (IC50).
As to `COc1ccc(-c2ccc(CC(Cc3ccc(C(F)(F)P(=O)(O)O)cc3)(c3ccccc3)n3nnc4ccccc43)cc2)cc1P(=O)(O)O` (centres undefined) [5-{4-[2-(1H-1,2,3-benzotriazol-1-yl)-3-{4-[difluoro(phosphono)methyl]phenyl}-2-phenylpropyl]phenyl}-2-methoxybenzene-1-phosphonic acid], the IC50 in assay [1] worked out at 0.031 µM; in assay [2] it was 0.01 µM.
In the case of `COCOC(CC(C)C)c1ccc2cc(-c3ccc(CC(Cc4ccc(C(F)(F)P(=O)(O)O)cc4)(c4ccccc4)n4nnc5ccccc54)cc3)cc(P(=O)(O)O)c2n1` (centres undefined) [6-{4-[2-(1H-1,2,3-benzotriazol-1-yl)-3-{4-[difluoro(phosphono)methyl]phenyl}-2-phenylpropyl]phenyl}-2-[1-(methoxymethoxy)-3-methylbutyl]quinoline-8-phosphonic acid], the IC50 came out at 0.021 µM in assay [1] and 0.011 µM in assay [2].
In assay [1], `COC(CC(C)C)c1ccc2cc(-c3ccc(CC(Cc4ccc(C(F)(F)P(=O)(O)O)cc4)(c4ccccc4)n4nnc5ccccc54)cc3)cc(P(=O)(O)O)c2n1` (centres undefined) [6-{4-[2-(1H-1,2,3-benzotriazol-1-yl)-3-{4-[difluoro(phosphono)methyl]phenyl}-2-phenylpropyl]phenyl}-2-(1-methoxy-3-methylbutyl)quinoline-8-phosphonic acid] yielded an IC50 of 0.036 µM.
In assay [2], `O=P(O)(O)C(F)(F)c1ccc(C[C@H](c2ccccc2)n2nnc3ccccc32)cc1` [({4-[(2R)-2-(1H-1,2,3-benzotriazol-1-yl)-2-phenylethyl]phenyl}difluoromethyl)phosphonic acid] showed an IC50 of 8.04 µM.
As for `Cc1ccc2cc(-c3ccc(CC(Cc4ccc(C(F)(F)P(=O)(O)O)cc4)(c4ccccc4)n4nnc5ccccc54)cc3)cc(P(=O)(O)O)c2n1` (centres undefined), the IC50 in assay [1] was found to be 0.02 µM.
For `O=P(O)(O)C(F)(F)c1ccc(CC(Cc2ccc(-c3ccccc3)cc2)(c2ccccc2)n2nnc3ccccc32)cc1` (centres undefined) [({4-[2-(1H-1,2,3-benzotriazol-1-yl)-2-phenyl-3-(4-phenylphenyl)propyl]phenyl}difluoromethyl)phosphonic acid], the results for the IC50 in assay [1] and in assay [2] were 0.024 µM and 0.038 µM, respectively.
On to `CC(C)CCOc1ccc(-c2ccc(CC(Cc3ccc(C(F)(F)P(=O)(O)O)cc3)(c3ccccc3)n3nnc4ccccc43)cc2)cc1P(=O)(O)O` (centres undefined) [5-{4-[2-(1H-1,2,3-benzotriazol-1-yl)-3-{4-[difluoro(phosphono)methyl]phenyl}-2-phenylpropyl]phenyl}-2-(3-methylbutoxy)benzene-1-phosphonic acid], for which the IC50 was 0.02 µM in assay [1] and 0.006 µM in assay [2].
For `CC(C)CC(O)c1ccc2cc(-c3ccc(CC(Cc4ccc(C(F)(F)P(=O)(O)O)cc4)(c4ccccc4)n4nnc5ccccc54)cc3)cc(P(=O)(O)O)c2n1` (centres undefined) [6-{4-[2-(1H-1,2,3-benzotriazol-1-yl)-3-{4-[difluoro(phosphono)methyl]phenyl}-2-phenylpropyl]phenyl}-2-(1-hydroxy-3-methylbutyl)quinoline-8-phosphonic acid], in that order: 0.017 µM and 0.006 µM.
